What was measured:
Format in all cases: cell-based, human
[1] = system: HL-60 cells; assay: Total and glycoside bound sialic acids by periodate-resorcinol assay; conditions: 100 μM, 48 h
Experimental: Total sialic acids were measured following reported procedures. HL-60 cells (3.0×10^5 cells/mL in 10 mL complete medium in 10 cm diameter Petri dishes) were incubated with D, 1a, 1b, 1c, 1d, 1e, 1f, 1g, 2a, or 2b (100 mM each), along with untreated (U) controls. After 48 h, cells were harvested, washed with PBS (3×5.0 mL; 3000×g, for 2.0 min), aliquoted to 2×10^6 cells per sample and resuspended in PBS (150 mL) in 1.5 mL microcentrifuge tubes. Cells were lyzed by three freeze-thaw cycles and the total lysates were subjected to periodate-resorcinol assay. Briefly, lysates (150 mL) were treated with 0.4 M aqueous periodic acid (6.67 mM) or (2.5 mL) and incubated either on ice for 15 min (for measurement of total sialic acids) or at 37° C. for 1.0 h (for measurement of glycoconjugate bound sialic acids). About 10 mL of reagent cocktail was prepared using 6% w/v of aqueous resorcinol (1.0 mL), 2.5 mM copper (II) sulfate (1.0 mL), 44% of concentrated hydrochloric acid (4.4 mL), and water (3.6 mL). The mixture was then treated with the reagent cocktail (250 mL per sample), boiled at 100° C. for 10 min, rapidly quenched in an ice-bath and treated with tert-butanol (250 mL). The contents were centrifuged and the supernatants were aliquoted (200 mL) into 96-well plates and the absorbance at 630 nm was measured. At least three replicates were prepared for each condition.

[2] = system: Jurkat cells; assay: NeuAz expression on the cell surface by SPAAC with DBCO-Cy5 and flow cytometry, competition with Ac4ManNAz (1c); conditions: for reduction in NeuAz expression upon co-incubation: 0-50 μM with 1c 50 μM, simultaneous addition; for reduction in NeuAz expression upon co-incubation / NeuAz expression upon co-incubation with Ac4ManNAz: 24 h; for NeuAz expression upon co-incubation with Ac4ManNAz: Ac4ManNAz (Z) 50 μM plus analogue at 10, 25, 50 μM
Experimental: FIG. 5 illustrates competitive processing by compounds of the present invention (ManNAc compounds). ManNAc compounds competitively reduce the expression of N-azidoacetyl-D-neuraminic acid (NeuAz)-carrying sialoglycans through the metabolic processing of Ac4ManNAz. Jurkat (human T-lymphoma) cells were incubated with Ac4ManNAz (Z) (50 μM) alone, co-incubated with GL-2, GL-3, MA-2, or MA-3 (at various concentrations such as 10,
25, and 50 μM) for 24 h. Expression of N-azidoacetyl-D-neuraminic acid (NeuAz) on the cell surface sialoglycans was estimated using strain-promoted azide-alkyne cycloaddition (SPAAC) with DBCO-Cy5 and analyzed by flow cytometry. […] GL-2 was used for comparative study and the structure of this compound is as below.
Jurkat cells (3.0×10^5 cells/mL; 2.5 mL per well in 6-well plates) in complete medium were treated with either vehicle (D) or Compound 1c; Untreated Jurkat cells, without addition of vehicle, were also included as additional controls. Cells were harvested at 48 h, washed thrice with PBS (3×0.5 mL) (3000×g, 2.0 min). Prior to the last wash cells were counted and were aliquoted to 1.0×10^6 cells per sample in 1.5 mL microcentrifuge tubes and centrifuged. The cells were gently resuspended in PBS ([…]) and treated with DBCO-Cy5 ([…]) and incubated at 37° C. (on a Torrey-Pines dry heating bath with mild shaking). After one hour, the cells were washed using FSB (0.5 mL, 3000×g, 2.0 min, room temperature), resuspended in PBS (250 mL), treated with PI (2.5 mg/mL), and analyzed using BD FACSCanto and FACSDiva Version 6.1.3. The cells were gated for PI-negative population for 10,000 events. Two replicate samples were prepared for each conditions and each sample was counted twice.
Estimation of NeuAz expression by 1c in the presence of peracetylated ManNAc analogues: Jurkat cells (3.0×10^5 cells/mL in 3.0 mL per well in 6-well plates) were incubated with (i) D, (ii) 1a, 1b, 1c, or 1d alone (50 mM) or (iii) 1a, 1b, or 1d (50 mM) in combination with 1c (50 mM). After 24 h, cells were harvested, washed using FSB, aliquoted to 5.0×10^5 cells per sample, and processed as mentioned above for estimation of NeuAz expression using DBCO-Cy5 ([…]). Experiments using HL-60 cells were performed using the same procedure. […]
Effect of GlcNAc and ManNAc analogues on NeuAz expression: Jurkat cells were treated with 1a, 1b, 2a, or 2b (10, 25, and 50 mM for each analogue) in combination with 1c (50 mM). Cells treated with 1c (50 mM) alone were considered as a reference. After 24 h, cells were harvested, processed, labelled with DBCO-Cy5 ([…]), and analysed by flow cytometry as mentioned above.
In order to evaluate the metabolism, Jurkat (human T-lymphoma) cells were selected and incubated with ManNAc analogues either alone (50 μM) or in combination with 1c (50 μM) for 48 h. Expression of NeuAz on cell surface was estimated by flow cytometry through the copper-free bio-orthogonal strain-promoted azide-alkyne cycloaddition (SPAAC) reaction using dibenzocyclooctyne-Cy5 (DBCO-Cy5). The conditions for click reaction were optimized for various concentrations of DBCO-Cy5 and time course of SPAAC reaction in Jurkat cells. Based on the optimization results, incubation time of 30 min at 37° C. for 5.0×10^5 cells (pre-incubated with 1c for 48 h) with 20 μM of DBCO-Cy5 in 100 μL total volume for experiments with ManNAc analogues was chosen. […] In order to test the dose-dependency of this inhibitory effect on NeuAz expression and to establish competitive metabolic processing, Jurkat cells were first treated with either 1a or 1b (0-50 μM) followed by addition of 1c (50 μM) at 12 h and estimation of NeuAz at 48 h. As expected, the suppression of NeuAz expression was substantially higher when added with a 12 h delay compared to simultaneous addition, in a dose-dependent manner. […] By contrast simultaneous addition resulted only in a 10% reduction of NeuAz for both 1a and 1b (FIG. 6C and FIG. 7B).

[3] = system: HL-60 cells; assay: Cell density as a measure of proliferation/cytotoxicity; conditions: 100 μM, cell density measured at 24, 48, and 72 h
[4] = system: HL-60 cells; assay: Cell surface sialyl-Lewis-X (CD15s) by anti-CD15s (CSLEX1) flow cytometry; conditions: 50 μM, 24 h
Experimental: Effect of ManNAc analogues on the expression of sialyl-Lewis-X and Lewis-X: HL-60 cells (3.0×10^5 cells/mL in 2.0 mL complete medium in 6 well plate) were treated with D (vehicle), 1a, 1b, 1c, 1d, 1e, 1f, or 1g (50 PM), along with untreated (U) control. After 24 h, cells were harvested and washed with PBS (3×0.5 mL, 3000×g, 3.0 min at room temperature). Prior to last wash, cells were counted using Z2 coulter counter and aliquoted at 2.5×10^5 cells per sample and stained with either mouse anti-human CD15s (CSLEX1) (1.25 μg/mL) or mouse anti-human CD15 (HI98) (2.5 μg/mL) in HEPES/CaCl2) buffer (30 mM HEPES, 110 mM NaCl, 10 mM KCl, 2 mM MgCl2, 10 mM glucose, 1.5 mM CaCl2) containing 0.1% bovine serum albumin, pH 7.3) (total volume of 100 μL) for 30 min at 4° C. Cells were washed with HEPES/CaCl2 buffer (2×0.5 mL) and stained with AlexaFluor488-conjugated anti-mouse IgM (2.5 μg/mL) (for both CD15s and CD15) in 100 μL HEPES/CaCl2 for 30 min at 4° C. Cells were washed with HEPES/CaCl2 buffer (2×0.5 mL), resuspended in PBS (0.2 mL), treated with PI (2.5 μg/ml) and analysed by BD FACSVerse. Samples treated with (i) isotype antibodies followed by secondary antibody and (ii) secondary antibody alone were prepared as controls. Single Cells were gated for PI-negative population for 10,000 events and analysed by flow cytometry. Two replicate samples were prepared for each condition and each sample was counted twice. Three independent experiments were performed. Data was analysed using FlowJo V10. For plotting graph and calculation of significant probability ‘p’ values, two-way ANOVA with Dunnett's multiple comparison tests was employed in GraphPad Prism 8.
Time course of CD15s expression: HL-60 cells (3.0×10^5 cells/mL in 2.5 mL complete medium in 6-well plates) were incubated with D, 1a, 1b, or 1d (50 mM). At each time point, from day 1 to day 6, the cells were harvested from the entire contents of the well, washed, and aliquoted to 5.0×10^5 cells per sample, and immuno-stained using anti-CD15s (CSLEX1) antibody as mentioned above. On day 3, 4, and 5 complete media (1.0 mL) was added to each remaining well in order to compensate for media exhaustion. No contents were removed from the well during the period.

[5] = system: HL-60 cells; assay: NeuAz expression by SPAAC with DBCO-Cy5 and flow cytometry, competition with 1c; conditions: 50 μM with 1c 50 μM, 24 h
Experimental: Estimation of NeuAz expression by 1c in the presence of peracetylated ManNAc analogues: Jurkat cells (3.0×10^5 cells/mL in 3.0 mL per well in 6-well plates) were incubated with (i) D, (ii) 1a, 1b, 1c, or 1d alone (50 mM) or (iii) 1a, 1b, or 1d (50 mM) in combination with 1c (50 mM). After 24 h, cells were harvested, washed using FSB, aliquoted to 5.0×10^5 cells per sample, and processed as mentioned above for estimation of NeuAz expression using DBCO-Cy5 ([…]). Experiments using HL-60 cells were performed using the same procedure.
Having confirmed metabolic acceptability in Jurkat cells, the compounds were tested on HL-60 (human acute myeloid leukemia) cells which are a reliable model for neutrophil adhesion. The effect on competitive suppression of NeuAz expression was studied using 1c as a reporter. HL-60 cells were treated with 1c either alone (50 μM) or in combination with ManNAc analogues (50 μM), including the straight chain derivatives, for 24 h followed by DBCO-Cy5 ligation. […] The decreasing ability of linear alkyl moieties (1d-1g), as a function of chain length, for suppression of NeuAz expression is in contrast to the cycloalkyl moieties. […] Similarly, 1a induced a reduction of 40% compared to only a 15% reduction by 1f.

Row | SMILES | glycoside bound sialic acid levels (in words) [1] | ratio of total sialic acids to glycoside bound sialic acids vs untreated cells [1] | total sialic acid levels (in words) [1] | reduction in NeuAz expression upon co-incubation [2] | NeuAz expression upon co-incubation with Ac4ManNAz [2] | decrease in cell density [3] [%] | increase in binding of CSLEX1 antibody (sLeX) compared to controls [4] [fold] | further results
1 | CC(=O)OC[C@H]1O[C@@H](OC(C)=O)[C@H](NC(=O)C2CC2)[C@@H](OC(C)=O)[C@@H]1OC(C)=O [Compound 2a, 1,3,4,6-tetra-O-acetyl-2-cyclopropanoylamino-2-deoxy-β-D-glucopyranose] | comparable to untreated cells | lower ratios | comparable to untreated cells | negligible reduction | not | ~10 | – | –
2 | CC(=O)OC[C@H]1O[C@H](OC(C)=O)[C@@H](NC(=O)CN=[N+]=[N-])[C@@H](OC(C)=O)[C@@H]1OC(C)=O [Compound 1c, 1,3,4,6-tetra-O-acetyl-2-azidoacetylamino-2-deoxy-α-D-mannopyranose] | comparable to untreated cells | – | – | – | – | ~10 | 1.4 | NeuAz expression / DBCO-Cy5 signal, compound alone ([2]; 50 μM alone, 48 h): robust expression of NeuAz
3 | CC(=O)OC[C@H]1OC(OC(C)=O)[C@H](NC(=O)C2CCC2)[C@@H](OC(C)=O)[C@@H]1OC(C)=O (stereo partly drawn) [Compound 2b, (3R,4R,5S,6R)-6-(acetoxymethyl)-3-(cyclobutanecarboxamido)tetrahydro-2H-pyran-2,4,5-triyl triacetate] | comparable to untreated cells | lower ratios | comparable to untreated cells | negligible reduction | – | ~10 | – | –
4 | CC(=O)OC[C@H]1OC(OC(C)=O)[C@@H](NC(=O)C2CCC2)[C@@H](OC(C)=O)[C@@H]1OC(C)=O (mixture of isomers) [Compound 1b, (3S,4R,5S,6R)-6-(acetoxymethyl)-3-(cyclobutanecarboxamido)tetrahydro-2H-pyran-2,4,5-triyl triacetate] | – | – | – | – | reduced competitively in a dose-dependent manner | – | – | –
5 | CC(=O)OC[C@H]1OC(OC(C)=O)[C@H](NC(=O)C2CCC2)[C@@H](OC(C)=O)[C@@H]1OC(C)=O (mixture of isomers) [Compound 2b, (3R,4R,5S,6R)-6-(acetoxymethyl)-3-(cyclobutanecarboxamido)tetrahydro-2H-pyran-2,4,5-triyl triacetate] | – | – | – | – | not | – | – | –
6 | CCC(=O)N[C@@H]1[C@@H](OC(C)=O)O[C@H](COC(C)=O)[C@@H](OC(C)=O)[C@@H]1OC(C)=O [Compound 1e, 1,3,4,6-tetra-O-acetyl-2-(1-propanoyl)amino-2-deoxy-α-D-mannopyranose] | – | higher ratios of free sialic acid | – | – | – | – | ~2.5 | increase in glycoside bound sialic acid levels [1]: ~10%; increase in total sialic acid levels vs untreated cells [1]: 2.3 fold; NeuAz expression with respect to 1c alone (100%) [5]: 65%; suppression of NeuAz expression (in words) [5]: significant suppression

Reference: patent US20240002424A1, “HEXOSAMINE COMPOUNDS AND METHODS THEREOF” (National Institute of Immunology, priority 2021, published 2024)
